In patent US11767520B2, “Compositions and methods for treating lung inflammation” (aTyr Pharma, Inc., priority 2017, dated 2023):

Tests used:
[1] = test system: bleomycin-induced lung fibrosis; assay: Histological fibrosis (modified Ashcroft) score, BLM rat model, combination study (Example 3); format: in vivo, rat (male Sprague Dawley); conditions: BLM-induced rats; alone or in combination, vs PO plus IV vehicles; data not shown
Description: (§1) The five lung lobes were collected and weighed. On Day 17, the right accessory lobe was retained and desiccated to obtain dry weight. The remaining right lung lobes were inflated and fixed in 10% neutral buffered formalin and embedded in paraffin for histological analysis. An approximately 50 mg piece of the left lung lobe was snap frozen and stored at −80° C. for potential RNA analysis. The remainder of the lobe was also snap frozen until analyzed for collagen content.
(§2) Sections for histology were stained using picrosirius red and were scored in a blinded fashion (1 score for each of the 3-4 lobes) by a veterinary pathologist using a modified Ashcroft score (Hubner et al., 2008). Hydroxyproline content was determined in the left lung lobe using a mass spectrometry method.
(§3) Slides were read by a veterinary pathologist and each of the 3 lobes evaluated was assigned 4 score types [Ashcroft for fibrosis (scores range from 0 to 8), perivascular/peribronchiolar inflammatory cell infiltrate (scores range from 0 to 5), interstitial/alveolar inflammatory cell infiltrate (scores range from 0 to 5), type II pneumocyte hyperplasia (scores range from 0 to 5)].

[2] = test system: bleomycin-induced lung inflammation; assay: Interstitial/alveolar inflammatory cell infiltrate score, BLM rat model, combination study (Example 3); format: in vivo, rat (male Sprague Dawley); conditions: BLM-induced rats; alone or in combination, vs PO plus IV vehicles; data not shown
Description: as §1, §2, §3

[3] = test system: bleomycin-induced lung fibrosis; assay: Histological fibrosis (modified Ashcroft) score, BLM mouse model (Example 1); format: in vivo, mouse (male C57Bl/6J); conditions: BLM-induced mice
Description: The five lung lobes were collected and isolated. Wet weight of the medial and accessory lung lobes was recorded. The lobes were then snap frozen and stored at <−70° C. until use for hydroxyproline analysis. The left lung lobe was inflated and fixed for 48 hours in 4% formaldehyde and embedded in paraffin for histological analysis. The cranial lung lobe was snap frozen and stored at −80° C. until shipment to Kinemed for the determination of new collagen formation.
Sections of the left lung lobe were stained using Masson's Trichrome and were scored in a blinded fashion using a modified Ashcroft score (Hubner et al., BioTechniques. 44:507-511, 514-507, 2008). Hydroxyproline content was determined in the medial and accessory lung lobes using acid hydrolysis followed by a chromogenic assay (QuickZyme Biosciences, Leiden, Netherlands). Newly formed collagen was measured in the cranial lung lobe by Kinemed Inc., Emeryville, USA using the fraction of body water enriched in 2H for normalization.

[4] = test system: bleomycin-induced lung inflammation and fibrosis; assay: Cell counts in BAL fluid, BLM mouse model (Example 1); format: in vivo, mouse (male C57Bl/6J); conditions: BLM-induced mice; daily PO from Day 0: dexamethasone 0.25 mg/kg, Nintedanib 60 mg/kg; vs PO vehicle
Description: Lung inflammation and fibrosis were induced in male C57Bl/6J mice by oropharyngeal administration of BLM. After the habituation phase mice were randomized based on body weight over the different groups. Under isoflurane anesthesia, 50 μl PBS or BLM was dripped onto the vocal cords facilitating aspiration. Mice were sacrificed at day 21 using a terminal bleed under isoflurane anesthesia.
Daily oral treatments commenced on Day 0, while daily IV treatments commenced on Day 8. Dosing was planned to continue until the day of termination (Day 21), however, due to high mortality in IV treated groups (see results), IV dosing was skipped on Day 19 and Day 20. […] Subsequently, the mice received 8% D20 (Kinemed, Emeryville) drinking water until sacrifice to maintain labeling of newly formed collagen. Body weight was monitored three times a week.
The lungs were flushed two times with 750 μl PBS, combined into one bronchoalveolar lavage (BAL) sample, and stored on ice until centrifugation. The supernatant was collected and stored frozen (<−70° C.). The erythrocytes in the cell pellet were lysed and the remaining cells were resuspended in 100 μl PBS. 20 μl was diluted in trypan blue solution and used for counting the live cells using a hemocytometer.

[5] = test system: bleomycin-induced lung fibrosis; assay: Histological fibrosis (modified Ashcroft) score, BLM rat model (Example 2); format: in vivo, rat (male Sprague Dawley); conditions: BLM-induced rats
Description: The five lung lobes were collected and weighed. The right lung lobes were inflated and fixed in 10% neutral buffered formalin and embedded in paraffin for histological analysis. An approximately 50 mg piece of the left lung lobe was snap frozen and stored at −80° C. for potential RNA analysis. The remainder of the lobe was also snap frozen until analyzed for collagen content.
Sections for histology were stained using picrosirius red and were scored in a blinded fashion (1 score for each of the 4 lobes) by a veterinary pathologist using a modified Ashcroft score (Hubner et al., 2008). Hydroxyproline content was determined in the left lung lobe using a mass spectrometry method.
Slides were read by a veterinary pathologist and each of the 4 lobes evaluated was assigned 4 scores [Ashcroft for fibrosis (scores range from 0 to 8), perivascular/peribronchiolar inflammatory cell infiltrate (scores range from 0 to 5), interstitial/alveolar inflammatory cell infiltrate (scores range from 0 to 5), type II pneumocyte hyperplasia (scores range from 0 to 5)].
Having noted the high variability in mean Ashcroft Index Scores within groups and also in lung pathology within each individual due to the focal nature of the model, we analyzed Ashcroft scores from all fields scored (4 per animal), which increased the number of observations to 24-32 in BLM-induced groups.

COC(=O)c1ccc2c(c1)NC(=O)/C2=C(\Nc1ccc(N(C)C(=O)CN2CCN(C)CC2)cc1)c1ccccc1 [Nintedanib, nintedanib]
Interstitial inflammatory cell infiltrate (as printed in the Ashcroft score paragraph) [1]: no significant effect
Interstitial inflammatory cell infiltrate [2]: no significant effect
Group mean histological (Ashcroft) score, significance vs respective vehicle ([3]; left lung lobe, Day 21, dexamethasone/Nintedanib PO, Test Article = HisRS1^N8 IV): did not result in a significant decrease
Overall effects in this experiment ([3]; Nintedanib 60 mg/kg/dose from day of BLM instillation): no significant effects
Live cells counted in BAL fluid at termination [4]: did not significantly affect
Decrease of group mean Ashcroft score vs respective vehicle ([5]; Day 22, Nintedanib PO, Test Article = HRS^FC1 1 mg/kg IV on Days 2, 9 and 16, not significant): 5%
Group mean Ashcroft score, significance vs respective vehicle ([5]; Day 22, Nintedanib PO, Test Article = HRS^FC1 IV): did not meet statistical criteria
Overall effects in this experiment ([5]; Nintedanib (50 mg/kg/dose) starting on Day 9, as printed in Summary): no significant effects
